Data published in patent US20220249523A1, “BENZOAZEPINE COMPOUND-CONTAINING FREEZE-DRIED COMPOSITION” (OTSUKA PHARMACEUTICAL CO., LTD., priority 2019, published 2022).
Blank lines part the entries; values can stand above or below the compound they belong to.

How the values were obtained:
Type in all cases: physicochemical
[1] = Stability of metal salts of compound (1) in a solid state; conditions: compared to compound (1)
Description: (§1) The stability of these metal salts in a solid state was analyzed. […] Additionally, the solubility in water was analyzed.

[2] = Solubility in water of compound (1) and its metal salts
Description: as §1

[3] = Storage stability of freeze-dried compositions: amount of tolvaptan produced (HPLC area normalization); conditions: for Amount of tolvaptan produced: freeze-dried composition, compound (1) 0.1 w/v %; for Amount of tolvaptan produced / Amount of tolvaptan produced (%): 60° C. for 1 month; for Amount of tolvaptan produced (%): freeze-dried
Description: Aqueous solutions containing compound (1) (0.1 w/v %), mannitol (4 w/v %), and sodium hydroxide (q.s.) were prepared (pH 7, 7.5, 8, 8.5, or 9) using a 20 mM disodium hydrogen phosphate buffer.
The aqueous solutions were each placed in a 2-mL glass vial, and frozen to a temperature of −40° C. or lower. Thereafter, the vials were depressurized to vacuum, and water was removed during freeze-drying to thus obtain freeze-dried compositions. The resulting products were stored at 40° C. for 3 months, or at 60° C. for 1 month; and then reconstituted with the same amount of water as that removed by freeze-drying, to return the products back to aqueous solutions. The amount of total degradation products or tolvaptan produced (%) in each of the obtained aqueous solutions was determined by the HPLC area normalization method.
Freeze-dried compositions were prepared in the same manner as in the “Analysis 1: Stability of Freeze-Dried Formulation of Compound (1)” section above using additives other than mannitol, i.e., NaCl, sorbitol, sucrose, maltose, trehalose, or lactose. Here, the pH of the aqueous solutions before preparing freeze-dried compositions was adjusted to 8.5. However, for lactose, the pH of the aqueous solution before preparing a freeze-dried composition was adjusted to 9.0 with a 24 mM sodium hydrogen carbonate buffer.
After the obtained freeze-dried compositions were stored at 60° C. for 1 month, the amount of tolvaptan produced was determined by the HPLC area normalization method, and the stability of compound (1) in each composition was analyzed. […] The reduction was particularly remarkable with sucrose, maltose, and lactose. Additionally, after storage at 60° C. for 1 week of the aqueous solutions before preparing freeze-dried compositions, the stability of compound (1) in each composition was analyzed. […] The results confirmed that the use of maltose or lactose increased the amount of tolvaptan produced (%).
Aqueous solutions with a pH of 7.5, 8, 8.5, or 9 were prepared in the same manner as in the “Analysis 2: Stability of Freeze-Dried Formulation of Compound (1)” section above, except that compound A at a concentration of 0.541 w/v % and sucrose at a concentration of 7.5 w/v % were used. The resulting aqueous solutions were freeze-dried to obtain freeze-dried compositions. The freeze-dried compositions were stored at 60° C. for 1 month. Thereafter, the amount of tolvaptan produced (%) was determined by the HPLC area normalization method.
An aqueous solution with a pH of 8.5 was prepared in the same manner as in the “Analysis 1: Stability of Freeze-Dried Formulation of Compound A” section above, using potassium phosphate instead of sodium phosphate as a buffering agent. Further, a freeze-dried composition was prepared to analyze the stability of compound A in the freeze-dried composition (after storage at 60° C. for 1 month). The amount of tolvaptan produced (%) was 0.07%, which was the same as when sodium phosphate was used.
Aqueous solutions with a pH of 8.0 were prepared in the same manner as in the “Analysis 1: Stability of Freeze-Dried Formulation of Compound A” section above, such that the sucrose concentration was 1%, 2%, 4%, or 7.5%. Further, the freeze-dried compositions were prepared to analyze the stability of compound A in the freeze-dried compositions (after storage at 60° C. for 1 month). The amount of tolvaptan produced (%) was 0.25% when the sucrose concentration was 1%, 0.12% when the sucrose concentration was 2%, 0.08% when the sucrose concentration was 4%, and 0.10% when the sucrose concentration was 7.5%.
In addition to the aqueous solution containing sodium phosphate at a concentration of 20 mM and having a pH of 8.5, aqueous solutions containing sodium phosphate at a concentration of 10 mM or 50 mM were also prepared as in the same manner as the “Analysis 1: Stability of Freeze-Dried Formulation of Compound A” section above. […]

[4] = Stability of phosphate ester bond in aqueous solution on high-pressure steam sterilization (HPLC area normalization); conditions: 0.1 w/v % aqueous solution, 121° C., 20 minutes
Description: Aqueous solutions containing compound (1) at a concentration of 0.1 w/v % were prepared, and the stability of the aqueous solutions when subjected to high-pressure steam sterilization (121° C., 20 minutes) was analyzed. The aqueous solutions were prepared using a 100 mM sodium phosphate buffer or a 100 mM Tris buffer. The pH of the aqueous solutions prepared using each of the buffers was adjusted with sodium hydroxide to prepare solutions with different pHs. After the treatment, the purity of compound (1) and the amount of tolvaptan produced were determined by the HPLC area normalization method.

[5] = Appearance on reconstitution of freeze-dried compositions with water (foaming, cloudiness); conditions: freeze-dried compositions with a sucrose concentration of 4% or 7.5%, pH 8.0
[6] = pH at reconstitution with water of stored freeze-dried compositions; conditions: initial pH 8.5
Description: In addition to the aqueous solution containing sodium phosphate at a concentration of 20 mM and having a pH of 8.5, aqueous solutions containing sodium phosphate at a concentration of 10 mM or 50 mM were also prepared as in the same manner as the “Analysis 1: Stability of Freeze-Dried Formulation of Compound A” section above. Further, freeze-dried compositions were prepared to analyze the stability of compound A in the freeze-dried compositions (after storage at 60° C. for 1 month, or at 40° C. for 3 months). Thereafter, the pH at the time of reconstitution with water was analyzed.

SMILES: [O-][n+]1ccccc1[S-].[O-][n+]1ccccc1[S-].[Zn+2] [Zinc salt]
Stability in a solid state [1]: remarkably improved stability
Solubility in water [2]: 0.003 w/v %

Amount of tolvaptan produced ([3]; mannitol 4 w/v %, solution pH 8.5): 1.45%
Amount of tolvaptan produced ([3]; mannitol 4 w/v %, solution pH 9): 0.9%
Stability in freeze-dried compositions ([3]; mannitol 4 w/v %, solutions with a pH exceeding 8, storage at 60° C.): relatively stable
Solubility in water [2]: 0.14 w/v %
Stability of phosphate ester bond on high-pressure steam sterilization ([4]; sodium phosphate buffer having a pH of 7.5 or more): highly stable
Stability of phosphate ester bond on high-pressure steam sterilization ([4]; tolvaptan formed as a precipitate): hydrolyzed
SMILES: Cc1ccccc1C(=O)Nc1ccc(C(=O)N2CCCC(OP(=O)(O)O)c3cc(Cl)ccc32)c(C)c1 (stereo not drawn) [compound (1)]

Stability in a solid state [1]: remarkably improved stability
pH at 40° C. 3 months later ([6]; sodium phosphate 10 mM): 8.16
pH at 60° C. 1 month later ([6]; sodium phosphate 10 mM): 8.24
pH at 40° C. 3 months later ([6]; sodium phosphate 20 mM): 8.24
pH at 60° C. 1 month later ([6]; sodium phosphate 20 mM): 8.34
pH at 40° C. 3 months later ([6]; sodium phosphate 50 mM): 8.30
pH at 60° C. 1 month later ([6]; sodium phosphate 50 mM): 8.36
Amount of tolvaptan produced (%) ([3]; compound A 0.541 w/v %, sucrose 7.5 w/v %, 20 mM sodium phosphate, pH 7.5): 0.22%
Amount of tolvaptan produced (%) ([3]; compound A 0.541 w/v %, sucrose 7.5 w/v %, 20 mM sodium phosphate, pH 8): 0.10%
Amount of tolvaptan produced (%) ([3]; compound A 0.541 w/v %, sucrose 7.5 w/v %, 20 mM sodium phosphate, pH 8.5): 0.07%
Amount of tolvaptan produced (%) ([3]; compound A 0.541 w/v %, sucrose 7.5 w/v %, 20 mM sodium phosphate, pH 9): below the detection limit
Amount of tolvaptan produced (%) ([3]; compound A, pH 8.0, sucrose concentration 1%): 0.25%
Amount of tolvaptan produced (%) ([3]; compound A, pH 8.0, sucrose concentration 2%): 0.12%
Amount of tolvaptan produced (%) ([3]; compound A, pH 8.0, sucrose concentration 4%): 0.08%
Amount of tolvaptan produced (%) ([3]; compound A, sucrose 7.5 w/v %, pH 8.5, sodium phosphate 10 mM): 0.07%
Amount of tolvaptan produced (%) ([3]; compound A, sucrose 7.5 w/v %, pH 8.5, sodium phosphate 50 mM): below the detection limit
Amount of tolvaptan produced (%) ([3]; compound A, sucrose 7.5 w/v %, potassium phosphate instead of sodium phosphate, pH 8.5): 0.07%
Solubility in water [2]: ≥ 4 w/v %
SMILES: Cc1ccccc1C(=O)Nc1ccc(C(=O)N2CCCC(OP(=O)([O-])[O-])c3cc(Cl)ccc32)c(C)c1.[Na+].[Na+] (stereo not drawn) [compound A]
Appearance when reconstituted with water [5]: foaming and slight cloudiness were observed
